Experimental data reported in ChEMBL document CHEMBL1201862, “PubChem BioAssay data set” (2004).
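Exposure lasted 48 hours, with cells grown in 96-well plates and compounds tested at five concentrations. GI50: concentration for 50% inhibition of growth.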 The source made the active and inactive calls. Cut-off read from the data, not from the text of the source: active = GI50 up to about 1.1 µM and inactive = higher.

Legend:
Assay in all cases: NCI-60 cell line screen, 48 h
786-0 = system: 786-0
A549 = system: A549
COLO 205 = system: COLO 205
HCC 2998 = system: HCC 2998
HL-60 = system: HL-60
HT-29 = system: HT-29
IGROV-1 = system: IGROV-1
Malme-3M = system: Malme-3M
NCI-H226 = system: NCI-H226
OVCAR-4 = system: OVCAR-4
OVCAR-5 = system: OVCAR-5
SF-295 = system: SF-295
SK-MEL-5 = system: SK-MEL-5
SK-OV-3 = system: SK-OV-3
SN12C = system: SN12C
U-251 = system: U-251
UACC-257 = system: UACC-257
UO-31 = system: UO-31

Measured: GI50

c1ccc(CN2CCCCC(Sc3ccccc3)CC2)cc1 (configuration not stated)
inactive: 786-0 16.8 µM | A549 87.3 µM | COLO 205 13.4 µM | HCC 2998 16 µM | HL-60 23.3 µM | HT-29 17.7 µM | IGROV-1 91.6 µM | Malme-3M 19.1 µM | NCI-H226 32.1 µM | OVCAR-4 46.7 µM | OVCAR-5 18.3 µM | SF-295 40.5 µM | SK-MEL-5 18.7 µM | SK-OV-3 58.2 µM | SN12C 24.7 µM | U-251 15.9 µM | UACC-257 > 100 µM | UO-31 15.3 µM

c1cncc(C2c3[nH]c4ccccc4c3CCN2CCN2CCCCC2)c1 (configuration not stated)
inactive: 786-0 > 100 µM | A549 > 100 µM | HCC 2998 > 100 µM | HL-60 41.5 µM | HT-29 > 100 µM | IGROV-1 > 100 µM | OVCAR-4 > 100 µM | OVCAR-5 > 100 µM | SF-295 > 100 µM | SK-MEL-5 > 100 µM | SK-OV-3 > 100 µM | SN12C > 100 µM | U-251 > 100 µM | UACC-257 32.9 µM | UO-31 38.3 µM

Cc1c(C(=N)N)oc2ccccc12
inactive: 786-0 > 100 µM | A549 > 100 µM | COLO 205 > 100 µM | HCC 2998 > 100 µM | HL-60 > 100 µM | HT-29 > 100 µM | IGROV-1 > 100 µM | Malme-3M > 100 µM | NCI-H226 > 100 µM | OVCAR-4 > 100 µM | SF-295 > 100 µM | SK-MEL-5 > 100 µM | SK-OV-3 > 100 µM | SN12C > 100 µM | U-251 > 100 µM | UACC-257 > 100 µM | UO-31 > 100 µM

CC(O)c1ccc[n+](Cc2ccccc2)c1 (configuration not stated)
inactive: 786-0 > 400 µM | A549 > 400 µM | COLO 205 > 400 µM | HCC 2998 > 400 µM | HL-60 > 400 µM | HT-29 > 400 µM | IGROV-1 > 400 µM | Malme-3M > 400 µM | NCI-H226 > 400 µM | OVCAR-5 > 400 µM | SF-295 > 400 µM | SK-MEL-5 > 400 µM | SK-OV-3 > 400 µM | SN12C > 400 µM | U-251 > 400 µM | UACC-257 > 400 µM

C=CC/N=C1\NC(=O)C(CC(=O)Nc2ccc(C)cc2)S1 (configuration not stated)
inactive: 786-0 > 100 µM | A549 > 100 µM | COLO 205 > 100 µM | HCC 2998 > 100 µM | HL-60 > 100 µM | HT-29 > 100 µM | IGROV-1 > 100 µM | Malme-3M > 100 µM | NCI-H226 > 100 µM | OVCAR-4 > 100 µM | OVCAR-5 > 100 µM | SF-295 > 100 µM | SK-MEL-5 > 100 µM | SK-OV-3 > 100 µM | SN12C > 100 µM | U-251 > 100 µM | UO-31 > 100 µM

Cn1cnc([N+](=O)[O-])c1Sc1nc2cc(Cl)c(F)cc2[nH]1
inactive: 786-0 > 10 µM | A549 15.3 µM | COLO 205 6.43 µM | HCC 2998 7.6 µM | HT-29 14.9 µM | IGROV-1 7.66 µM | Malme-3M 13.7 µM | NCI-H226 9.55 µM | OVCAR-4 4.34 µM | OVCAR-5 16.8 µM | SF-295 48.4 µM | SK-MEL-5 11.7 µM | SK-OV-3 21.5 µM | SN12C 14.1 µM | U-251 8.41 µM | UACC-257 11.6 µM | UO-31 11.3 µM

O=c1[nH][nH]c(=O)[nH]1
inactive: 786-0 > 100 µM | A549 > 100 µM | COLO 205 > 100 µM | HCC 2998 > 100 µM | HL-60 > 100 µM | HT-29 > 100 µM | IGROV-1 > 100 µM | Malme-3M > 100 µM | NCI-H226 > 100 µM | OVCAR-4 > 100 µM | OVCAR-5 > 100 µM | SF-295 > 100 µM | SK-MEL-5 > 100 µM | SK-OV-3 > 100 µM | U-251 > 100 µM | UACC-257 > 100 µM | UO-31 > 100 µM

COC(=O)c1cc2cc(OC)c(OC)cc2cc(C(=O)OC)c1=O
inactive: 786-0 > 100 µM | A549 > 100 µM | COLO 205 > 100 µM | HCC 2998 > 100 µM | HL-60 > 100 µM | HT-29 > 100 µM | IGROV-1 > 100 µM | Malme-3M > 100 µM | OVCAR-4 > 100 µM | OVCAR-5 > 100 µM | SF-295 > 100 µM | SK-MEL-5 > 100 µM | SK-OV-3 > 100 µM | SN12C > 100 µM | U-251 > 100 µM | UACC-257 > 100 µM | UO-31 > 100 µM

N=C1NC2(O)C(=O)c3ccccc3C2(O)N1 (configuration not stated)
inactive: 786-0 > 100 µM | A549 > 100 µM | COLO 205 > 100 µM | HL-60 > 100 µM | HT-29 > 100 µM | IGROV-1 > 100 µM | Malme-3M > 100 µM | NCI-H226 > 100 µM | OVCAR-4 > 100 µM | OVCAR-5 > 100 µM | SF-295 > 100 µM | SK-MEL-5 > 100 µM | SK-OV-3 > 100 µM | SN12C > 100 µM | U-251 > 100 µM | UACC-257 > 100 µM

COc1cc(C(=O)C/C(CCC(=O)Nc2ccc(Cl)cc2Cl)=N/Nc2nnc(C)n2N)ccc1O
inactive: 786-0 > 100 µM | A549 > 100 µM | COLO 205 > 100 µM | HCC 2998 > 100 µM | HL-60 > 100 µM | HT-29 > 100 µM | IGROV-1 > 100 µM | Malme-3M > 100 µM | NCI-H226 > 100 µM | OVCAR-5 > 100 µM | SF-295 > 100 µM | SK-MEL-5 > 100 µM | SK-OV-3 > 100 µM | SN12C > 100 µM | U-251 > 100 µM | UACC-257 > 100 µM | UO-31 > 100 µM

Nn1c(S)nnc1N/N=C1/C(=O)Nc2ccccc21
inactive: 786-0 > 100 µM | A549 83.2 µM | COLO 205 > 100 µM | HCC 2998 > 100 µM | HL-60 94.4 µM | HT-29 > 100 µM | IGROV-1 59.2 µM | Malme-3M > 100 µM | NCI-H226 42.1 µM | OVCAR-4 42.1 µM | OVCAR-5 > 100 µM | SF-295 82.8 µM | SK-OV-3 43.7 µM | SN12C 50.6 µM | U-251 58.3 µM | UACC-257 > 100 µM | UO-31 47 µM

COc1ccc(C2=NN(c3ccccc3)C[N+](c3ccc(C)cc3)=N2)cc1
inactive: 786-0 43.6 µM | A549 59.7 µM | COLO 205 31.3 µM | HCC 2998 > 100 µM | HL-60 27.7 µM | HT-29 73.1 µM | IGROV-1 39.3 µM | Malme-3M 48.3 µM | NCI-H226 55.3 µM | OVCAR-4 13.2 µM | OVCAR-5 29.9 µM | SF-295 > 100 µM | SK-MEL-5 > 10 µM | SN12C 66.5 µM | U-251 20.6 µM | UACC-257 > 100 µM | UO-31 38.3 µM

CC(=O)Nc1ccc(C(=O)NN2C(=O)C(Cl)C2c2ccccc2O)cc1 (configuration not stated)
inactive: 786-0 9.06 µM | A549 > 100 µM | COLO 205 45.2 µM | HL-60 84.7 µM | HT-29 69 µM | IGROV-1 > 100 µM | Malme-3M 82.2 µM | NCI-H226 > 100 µM | OVCAR-4 > 100 µM | OVCAR-5 > 100 µM | SF-295 29.1 µM | SK-MEL-5 > 100 µM | SK-OV-3 12.9 µM | SN12C > 100 µM | U-251 15.8 µM | UACC-257 > 100 µM | UO-31 34.4 µM

N#CC(C(=O)/C(=N/N)C(C#N)c1ccccc1)c1ccccc1 (configuration not stated)
inactive: 786-0 > 100 µM | A549 > 100 µM | HCC 2998 > 100 µM | HL-60 > 100 µM | HT-29 > 100 µM | IGROV-1 > 100 µM | Malme-3M > 100 µM | NCI-H226 > 100 µM | OVCAR-4 > 100 µM | OVCAR-5 > 100 µM | SF-295 > 100 µM | SK-MEL-5 > 100 µM | SK-OV-3 > 100 µM | SN12C > 100 µM | U-251 > 100 µM | UACC-257 > 100 µM | UO-31 > 100 µM

CN(C)P(=O)(/C(N)=N/Nc1ccc([N+](=O)[O-])cc1)N(C)C
inactive: 786-0 > 100 µM | A549 > 100 µM | COLO 205 > 100 µM | HCC 2998 > 100 µM | HL-60 > 100 µM | Malme-3M > 100 µM | NCI-H226 > 100 µM | OVCAR-4 85.1 µM | OVCAR-5 > 100 µM | SK-MEL-5 > 100 µM | SN12C > 100 µM | U-251 > 100 µM | UACC-257 > 100 µM | UO-31 > 100 µM

CCc1ccc(Nc2ccc([N+](=O)[O-])cc2[N+](=O)[O-])cc1
inactive: 786-0 > 100 µM | A549 40.9 µM | HCC 2998 > 100 µM | HL-60 26.8 µM | HT-29 47.3 µM | IGROV-1 97.3 µM | Malme-3M > 100 µM | NCI-H226 34.2 µM | OVCAR-4 34.5 µM | OVCAR-5 > 100 µM | SF-295 89.7 µM | SK-MEL-5 38.6 µM | SK-OV-3 > 100 µM | U-251 77.1 µM | UACC-257 67.8 µM | UO-31 26.2 µM

CNC(SC)=C1C(=O)OC(C)(C)OC1=O
inactive: 786-0 > 100 µM | A549 > 100 µM | COLO 205 45.8 µM | HCC 2998 > 100 µM | HL-60 > 100 µM | HT-29 > 100 µM | IGROV-1 > 100 µM | Malme-3M > 100 µM | NCI-H226 > 100 µM | OVCAR-5 > 100 µM | SF-295 > 100 µM | SK-MEL-5 > 100 µM | SK-OV-3 > 100 µM | SN12C > 100 µM | U-251 18.1 µM | UACC-257 > 100 µM | UO-31 > 100 µM
